# Results as given in US10625229B2, “Device for preparing nano-carbon urea” (BEIJING NANO HI-TECH MATERIAL CO., LTD., priority 2016, dated 2020).
# Assays:
# [1] = tested on: corn; assay: Field experiment on application of nano-carbon urea in corn (2016, Inner Mongolia); type: in vivo, corn variety Simon 568; details: Pure N 20 kg/a unit of area (no nitrogen reduction)
# Text: The results of the experiment on the application of nano-carbon urea by bimeng academy of agricultural sciences in Inner Mongolia in 2016 are as follows: Nano-carbon urea is provided by the invention containing 46% nitrogen, and the amount of nano-carbon sol added is 10% of fertilizer weight, color: grey. Corn variety: Simon 568 Test site: Garden Canal Test Station of Agriculture and Animal Husbandry Science Research Institute, Bayannur City Random plot arrangement, 5 treatments, four repeats, […], mulch planting.
# [2] = tested on: soybean; assay: Soybean potted test of nano urea (Heilongjiang); type: in vivo; details: urea 10.8 g per pot (full dosage), 3 plants per pot
# Text: Soybean Experiment in Heilongjiang Agricultural Academy Test site: Heilongjiang Academy of Agricultural Sciences Laboratory Entrusted unit: Plant Nutrition and Environment Institute of Heilongjiang Agricultural Academy To determine the application effect and nitrogen utilization rate of nano-fertilizer on soybean and rice. Nano urea (46-0-0), calcium superphosphate (0-43-0), potassium sulfate (0-0-0-50), nano carbon sol content 0.57% solute, added amount is 10% of urea weight. Soybeans Potted Test There 3 plants per pot, repeat 6 times. N:P:K rating is 5:3.5:3, the results are as follows: […]
compound,measurement,setting,value
"NC(N)=O [Common urea, urea]",Yield kg/a unit of area,[1],1002.98 kg/a unit of area
same,Average yield g/pot,[2],50 g/pot
